The text below walks through data of patent publication US4572908A, “Dihydropyridines” (Pfizer Inc., priority 1982, dated 1986).

pIC50: −log10 of the molar value.

This experiment deals with rat aorta. The experiment is described as follows: inhibition of calcium-induced contraction (change in tension) of spirally cut strips of rat aorta in K+ 45 mM saline. The experiment is classed as cell-based. As to conditions: 0.75 h, 45 millimolar potassium, 2 millimolar calcium, 45 minutes, read-out: IC50 (molar concentration required to reduce the response by 50%). Here is the method:
The ability of the compounds to inhibit the movement of calcium into the cell is shown by their effectiveness in reducing the response of isolated heart tissue to an increase in calcium ion concentration in vitro. The test is performed by mounting spirally cut strips of rat aorta with one end fixed and the other attached to a force transducer. The tissue is immersed in a bath of physiological saline solution containing potassium ions at a concentration of 45 millimolar and no calcium. Calcium chloride is added to the bath with a pipette to give a final calcium ion concentration of 2 millimolar. The change in tension caused by the resulting contraction of the tissue is noted. The bath is drained and replaced with fresh saline solution and, after 45 minutes, the test is repeated with the particular compound under test present in the saline solution. The concentration of compound required to reduce the response by 50% (IC50) is recorded.
The molar concentrations of the compounds required to reduce the response by 50% in the test specified on pages 16-17 are given below (1M=1 gm.Mole/liter).

In the case of `CCOC(=O)C1=C(COCCNc2cc(N3CCCCC3)ncn2)NC(C)=C(C(=O)OC)C1c1ccccc1Cl` (centres unmarked) [Example 85], the pIC50 is 8.30.

For `CCOC(=O)C1=C(COCCNc2cc(N3CCOCC3)ncn2)NC(C)=C(C(=O)OC)C1c1ccccc1Cl` (centres unmarked) [Example 86], the pIC50 was 8.80.

Turning to `CCOC(=O)C1=C(COCCNc2nccnc2N2CCOCC2)NC(C)=C(C(=O)OC)C1c1ccccc1Cl` (centres unmarked) [Example 87], the pIC50 is 7.00.

Turning to `CCOC(=O)C1=C(COCCNc2cc(N3CCOCC3)ncn2)NC(C)=C(C(=O)OC)C1c1cccc(C(F)(F)F)c1Cl` (centres unmarked) [Example 88, 4-(2-Chloro-3-trifluoromethylphenyl)-3-ethoxycarbonyl-5-methoxycarbonyl-6-methyl-[2-(6-morpholino-pyrimidin-4-ylamino)ethoxymethyl]-1,4-dihydropyridin], the pIC50 was 9.90.

As to `CCOC(=O)C1=C(COCCNc2cnccn2)NC(C)=C(C(=O)OC)C1c1cccc(Cl)c1Cl` (centres unmarked) [Example 89, 4-(2,3-Dichlorophenyl)-3-ethoxycarbonyl-5-methoxycarbonyl-6-methyl-2-[2-(pyrazin-2-ylamino)ethoxymethyl]-1,4-dihydropyridine], the pIC50 was 9.30.

Take `CCOC(=O)C1=C(COCCNc2n[nH]c(O)n2)NC(C)=C(C(=O)OC)C1c1cccc(Cl)c1Cl` (centres unmarked) [Example 90B, 4-(2,3-Dichlorophenyl)-3-ethoxycarbonyl-2-[2-(5-hydroxy-1H-1,2,4-triazol-3-ylamino)ethoxymethyl]-5-methoxycarbonyl-6-methyl-1,4-dihydropyridine hydrate]: the pIC50 was 8.00.

Consider `CCOC(=O)C1=C(COCCNc2ncc(O)c(C)n2)NC(C)=C(C(=O)OC)C1c1cccc(Cl)c1Cl` (centres unmarked) [Example 91A, 4-(2,3-dichlorophenyl)-3-ethoxycarbonyl-2-[2-(5-hydroxy-4-methylpyrimidin-2-ylamino)ethoxymethyl]-5-methoxycarbonyl-6-methyl-1,4-dihydropyridine], for which the pIC50 was 9.00.

In the case of `CCOC(=O)C1=C(COCCNc2nc(C(C)=O)c[nH]2)NC(C)=C(C(=O)OC)C1c1cccc(Cl)c1Cl` (centres unmarked) [Example 91B, 2-[2-(4-acetylimidazol-2-ylamino)ethoxymethyl]-4-(2,3-dichlorophenyl)-3-ethoxycarbonyl-5-methoxycarbonyl-6-methyl-1,4-dihydropyridine], the pIC50 was 8.60.
